# Data from paper PMC11219871, “Epigenetic-based differentiation therapy for Acute Myeloid Leukemia” (Nature Communications, 2024).
# “And” between values parts separate entries of the source, which are not always exact repeats. Equal values may be shown once.
# Legend:
# hERG potassium channels = target: T1, hERG potassium channels (Homo sapiens, UniProt Q12809); assay: hERG blockade assay (whole-cell patch clamp, CHO cells); format: cell-based
# T1 construct: host or cells: CHO cells
# Procedure: This study was conducted at Wuxi (http://www.wuxi.com/), using CHO cells with stable expression of hERG potassium channels (Sophion Biosciences, Ballerup, Denmark). Cells were cultured (F12 medium, supplemented with 10% FBS, 1% Geneticin® selective antibiotic, 89 μg/mL hygromycin B) in a humidified and air-controlled (5% CO2) incubator at 37 °C ± 2 °C. Test compounds were diluted at different concentrations (0.3 μM–30μM), with a final DMSO concentration in an extracellular solution of <0.3%. The external solution consisted of 2 mM CaCl2, 1 mM MgCl2, 4 mM KCl, 145 mM NaCl, 10 mM glucose and 10 mM HEPES at pH 7.3–7.4. The internal solution consisted of 5.37 mM CaCl2, 1.75 mM MgCl2, 120 mM KCl, 10 mM HEPES, 5 mM EGTA and 4 mM Na2ATP at pH 7.2–7.3. The assay was performed at room temperature using the whole-cell patch clamp techniques controlled with Patchmaster Pro software. For quality control, minimum seal membrane resistance was set at 500 MOhms and the minimum/maximum specific hERG current (pre-compound) was 400 pA/3000 pA. A 100-nM amount of cisapride was used as the positive control to evaluate the reliability of the test system. Results are the average of two biological replicates.
# HDAC5 = target: T2, HDAC5 (Homo sapiens, UniProt Q9UQL6); assay: HDAC assay (Eurofins); format: biochemical
# T2 construct: purchased Eurofins (contracted assay service)
# [1] = tested on: HL-60, ML-2, MOLM-13 and MV4-11; assay: γ-H2AX immunofluorescence (DNA damage); format: cell-based; conditions: daily treatment 48 hours, four AML cell lines
# Procedure: authors should analyze this e.g by gH2AX immunofluorescence staining.
# As positive control, HL-60 cells irradiated with an acute dose of 30 J/m2 UV for 2 minutes were
# (see Reviewer Figure 22).
# HDAC10 = target: T3, HDAC10 (Homo sapiens, UniProt Q969S8); assay: HDAC assay (Eurofins); format: biochemical
# T3 construct: purchased Eurofins (contracted assay service)
# T3 sequence (Q969S8 1-669): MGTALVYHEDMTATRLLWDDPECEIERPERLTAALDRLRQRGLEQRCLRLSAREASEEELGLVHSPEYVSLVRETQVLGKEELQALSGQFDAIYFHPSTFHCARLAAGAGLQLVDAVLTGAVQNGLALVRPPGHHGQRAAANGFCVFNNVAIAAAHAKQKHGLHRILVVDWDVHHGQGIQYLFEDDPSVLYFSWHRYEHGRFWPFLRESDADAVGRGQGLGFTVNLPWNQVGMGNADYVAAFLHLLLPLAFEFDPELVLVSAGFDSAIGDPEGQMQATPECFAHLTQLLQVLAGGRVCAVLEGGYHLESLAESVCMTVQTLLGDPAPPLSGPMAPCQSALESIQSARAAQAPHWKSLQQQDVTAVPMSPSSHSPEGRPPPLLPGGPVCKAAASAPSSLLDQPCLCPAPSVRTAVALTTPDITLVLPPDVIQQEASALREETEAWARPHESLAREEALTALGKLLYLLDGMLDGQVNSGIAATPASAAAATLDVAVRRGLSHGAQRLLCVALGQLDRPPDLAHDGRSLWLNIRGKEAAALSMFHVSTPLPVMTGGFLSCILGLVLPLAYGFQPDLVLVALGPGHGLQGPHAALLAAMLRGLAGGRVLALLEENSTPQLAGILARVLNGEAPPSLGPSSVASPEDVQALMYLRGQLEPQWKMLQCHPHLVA
# [2] = tested on: MOLM-13 i.v. in BALB/cA Rag2-/-γc-/- mice; assay: Intravenous xenograft model (survival, CD11b in blood, body weight); format: in vivo, mouse; conditions: for Body weight: intravenous MOLM-13 AML mouse model, individual mice
# Procedure: (§1) The human AML MV4-11 and MOLM-13 xenograft mice models were generated by intravenous (i.v.) injection of 10 × 10^6 (MV4-11) or 1 × 10^4 (MOLM-13) cells diluted in 100 µL of saline solution in the tail vein of a 6-8-week-old female BALB/cA Rag2^−/−γc^−/− mice (n = 10). Treatment started 7 or 1 day after MV4-11 or MOLM-13 cells injection, respectively. MV4-11 and MOLM-13 mice were treated with i.p. 10 mg/kg of CM-444 and CM-1758 during 5 consecutive days followed by 2 resting days for 7 and 2 weeks, respectively. The control group received only 80% saline solution, 10% DMSO and 10% Tween 20 (diluents of CM-444 and CM-1758). The mice weight was controlled and remained stable during the treatment. Statistical results were calculated using the statistical software Medcalc. CD11b levels in blood samples from an intravenous MV4-11 mice model were measured by flow cytometry, as described above.
# [3] = tested on: MV4-11 i.v. in BALB/cA Rag2-/-γc-/- mice; assay: as above; format: in vivo, mouse; conditions: for body weight of mice: intravenous MV4-11 AML mouse model, individual mice
# Procedure: as §1
# [4] = tested on: global 5-methylcytosine levels in HL-60, ML-2, MV4-11 and MOLM-13 cell lines; assay: Dot blot; format: cell-based, human; conditions: HL-60, 270 nM CM-444 or 300 nM CM-1758, 48 h
# Procedure: DNA purity and concentration were measured using a NanoDrop spectrophotometer (Thermo Scientific). A 500 ng amount of genomic DNA was loaded onto a nitrocellulose membrane (Amersham Hybond_N+, RPN203B, GE Healthcare), pre-wetted in 6X SSC for 10 min, using the Bio-Dot microfiltration apparatus (Cat No 170-6545, Bio-Rad) following the manufacturer’s instructions. Next, the membrane was incubated with 2X SSC for 5 min and cross-linked for 2 h at 80 °C. The membrane, after being blocked with Tropix I-block blocking reagent (Cat No AI300, Tropix) in PBS with 0.1% Tween 20 and 0.02 NaN3, was incubated with the primary antibody against 5-methylcytosine (monoclonal antibody 5-methylcytidine, Cat No BI-MECY-1000, Eurogentec) diluted 1:4000 o/n at 4 °C and then with alkaline phosphatase-conjugated secondary antibody. […] To ensure equal loading of total DNA on the membrane, the same blot was stained with 0.02% methylene blue in 0.3 M sodium acetate (pH 5.2).
# Cytotoxicity (LC50) = format: cell-based; conditions: human, PBMCs from healthy donors, 72-h exposure
# T2 sequence (Q9UQL6 whole entry): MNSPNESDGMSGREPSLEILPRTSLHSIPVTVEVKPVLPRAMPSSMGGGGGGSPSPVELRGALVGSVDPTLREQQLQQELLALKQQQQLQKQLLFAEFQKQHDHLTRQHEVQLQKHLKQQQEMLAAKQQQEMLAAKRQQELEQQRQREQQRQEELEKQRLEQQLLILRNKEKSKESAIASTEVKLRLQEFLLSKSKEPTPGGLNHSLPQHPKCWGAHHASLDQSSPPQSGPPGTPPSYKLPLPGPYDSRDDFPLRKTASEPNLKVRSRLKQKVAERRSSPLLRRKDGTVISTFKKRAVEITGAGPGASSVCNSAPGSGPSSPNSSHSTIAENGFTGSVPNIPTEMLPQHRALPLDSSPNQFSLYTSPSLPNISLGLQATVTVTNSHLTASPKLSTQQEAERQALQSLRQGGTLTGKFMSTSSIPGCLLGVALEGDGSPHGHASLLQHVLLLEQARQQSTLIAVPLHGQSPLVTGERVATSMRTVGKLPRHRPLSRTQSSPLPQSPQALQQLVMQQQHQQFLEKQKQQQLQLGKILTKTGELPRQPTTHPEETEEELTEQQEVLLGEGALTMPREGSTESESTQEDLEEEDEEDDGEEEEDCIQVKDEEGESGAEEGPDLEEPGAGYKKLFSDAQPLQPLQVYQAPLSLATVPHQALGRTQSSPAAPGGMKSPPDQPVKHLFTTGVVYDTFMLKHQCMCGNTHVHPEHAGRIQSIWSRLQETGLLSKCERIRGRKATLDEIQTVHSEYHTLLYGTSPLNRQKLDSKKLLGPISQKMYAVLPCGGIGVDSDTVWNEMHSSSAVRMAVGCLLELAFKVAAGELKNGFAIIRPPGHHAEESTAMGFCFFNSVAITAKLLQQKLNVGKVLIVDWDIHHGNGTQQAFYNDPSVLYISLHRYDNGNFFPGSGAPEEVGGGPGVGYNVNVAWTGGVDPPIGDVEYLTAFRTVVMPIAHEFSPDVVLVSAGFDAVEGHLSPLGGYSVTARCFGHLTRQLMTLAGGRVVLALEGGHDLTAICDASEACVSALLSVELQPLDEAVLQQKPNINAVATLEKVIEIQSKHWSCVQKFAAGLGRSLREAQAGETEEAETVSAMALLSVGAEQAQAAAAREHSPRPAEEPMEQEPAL
# T1 sequence (Q12809 whole entry): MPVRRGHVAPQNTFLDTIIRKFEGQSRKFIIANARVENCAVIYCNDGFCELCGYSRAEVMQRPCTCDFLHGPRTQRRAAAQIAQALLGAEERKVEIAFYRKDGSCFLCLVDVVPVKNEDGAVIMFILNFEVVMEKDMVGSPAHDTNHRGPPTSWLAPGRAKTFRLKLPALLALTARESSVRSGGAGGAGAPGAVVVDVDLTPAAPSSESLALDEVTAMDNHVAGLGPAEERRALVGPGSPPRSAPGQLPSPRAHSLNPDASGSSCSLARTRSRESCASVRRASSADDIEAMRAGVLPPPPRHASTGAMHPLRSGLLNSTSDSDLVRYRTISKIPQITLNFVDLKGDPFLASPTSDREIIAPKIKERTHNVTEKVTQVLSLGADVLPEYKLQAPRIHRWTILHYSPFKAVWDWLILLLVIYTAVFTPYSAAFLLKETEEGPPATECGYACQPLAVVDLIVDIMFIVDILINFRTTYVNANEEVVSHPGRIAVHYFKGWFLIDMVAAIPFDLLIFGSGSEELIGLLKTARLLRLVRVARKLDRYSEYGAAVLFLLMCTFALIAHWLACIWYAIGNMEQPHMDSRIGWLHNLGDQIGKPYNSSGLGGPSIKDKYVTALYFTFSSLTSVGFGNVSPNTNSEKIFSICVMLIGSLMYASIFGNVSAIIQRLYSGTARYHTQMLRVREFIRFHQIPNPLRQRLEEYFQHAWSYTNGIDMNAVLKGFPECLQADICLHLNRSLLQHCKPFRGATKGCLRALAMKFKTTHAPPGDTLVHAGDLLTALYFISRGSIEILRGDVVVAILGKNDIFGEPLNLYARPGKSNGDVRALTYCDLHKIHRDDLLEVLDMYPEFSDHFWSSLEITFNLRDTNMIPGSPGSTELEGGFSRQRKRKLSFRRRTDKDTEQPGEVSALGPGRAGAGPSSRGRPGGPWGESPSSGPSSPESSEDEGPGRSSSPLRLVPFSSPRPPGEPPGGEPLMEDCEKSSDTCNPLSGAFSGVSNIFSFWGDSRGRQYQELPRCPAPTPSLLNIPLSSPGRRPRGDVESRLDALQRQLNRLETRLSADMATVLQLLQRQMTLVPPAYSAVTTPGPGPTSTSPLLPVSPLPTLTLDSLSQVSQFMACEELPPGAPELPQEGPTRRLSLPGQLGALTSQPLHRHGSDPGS
compound,measurement,setting,value
"COc1cc2nc(-c3ccc(C)o3)cc(NCC3CCN(c4ncc(C(=O)NO)cn4)CC3)c2cc1OC [CM-444, 2-[4-[[[6,7-dimethoxy-2-(5-methyl-2-furyl)-4-quinolyl]amino]methyl]-1-piperidyl]pyrimidine-5-carbohydroxamic acid]",hERG hill slope,hERG potassium channels,1.33
same,IC50,hERG potassium channels; read-out: hERG binding: IC50,16.8 µM
same,IC50,HDAC5,59 nM
same,inhibition at 10 µM,HDAC5; 10 µM,97%
same,DNA damage (γ-H2AX),[1],do not induced DNA damage
same,IC50,HDAC10,15 nM
same,inhibition at 10 µM,HDAC10; 10 µM,96%
same,overall survival (OS),"[2]; MOLM-13 i.v., 10 mg/kg i.p., 5 days on/2 off, 2 weeks",not having observed an increase in OS
same,Body weight,[2]; day 4,22.8 and 24 (2×) and 25 and 23.7 and 22.6 (2×) and 23.6 and 23 and 25.3
same,Body weight,"[2]; day 6, in g (unit assumed)",23.1 and 23.8 and 23.5 and 25 and 24.1 and 23.2 and 23 and 22.6 and 22 and 26.2
same,Body weight,[2]; day 8,22 (2×) and 23.1 and 23.6 and 24.1 and 23.2 and 22.9 and 22.7 and 22.6 and 25.8
same,Body weight,[2]; day 11,21.7 and 22.4 and 23 and 24.4 and 22.3 and 22.8 and 22.2 (2×) and 21.4 and 24.5
same,Body weight,[2]; day 13,22.1 (2×) and 23 and 23.1 and 24 and 22.7 and 22.9 and 22.3 and 21.2 and 24.8
same,CD11b in blood samples,"[3]; MV4-11 i.v., 10 mg/kg i.p.",statistically significant increase in CD11b
same,overall survival (OS),"[3]; MV4-11 i.v., 10 mg/kg i.p., 5 days on/2 off, 7 weeks",increased overall survival
same,body weight of mice,[3]; day 20,26 (2×) and 24.2 and 24.3 and 23.2 and 24.5 (2×) and 25.1 and 24.8 and 27 and 25.7 and 24
same,body weight of mice,[3]; day 23,26.5 and 24.3 (3×) and 24.7 and 23.9 and 25.1 and 25.2 and 24.9 and 24.6 and 27.6 and 26.2
same,body weight of mice,[3]; day 25,26.4 and 24.4 and 24.5 and 23.9 and 24.8 (2×) and 25.1 (2×) and 23.7 and 27.9 and 26.1 and 24.2
same,body weight of mice,[3]; day 28,25.9 and 24.3 and 24.1 (2×) and 22 and 24.6 (2×) and 25.3 and 25.1 and 27.9 and 26.2 and 24.2
same,body weight of mice,[3]; day 30,26.4 and 24 (2×) and 23.8 and 20.4 and 24.3 and 25 and 24.7 and 24.2 and 27.6 and 25.5 and 24.5
same,body weight of mice,[3]; day 31,25.8 and 24.8 (2×) and 24.4 and 22.9 and 25.7 and 24.5 and 23.7 and 27.3 and 24.6 and 24.7
same,body weight of mice,[3]; day 35,26.1 (2×) and 23.9 and 23.7 and 24.1 and 25.9 and 24.3 and 24.7 and 26.6 and 25
same,body weight of mice,[3]; day 37,26.5 and 24.6 and 24.4 and 25 (3×) and 27.2 (2×) and 27.7 and 27
same,body weight of mice,[3]; day 42,25.9 and 24.4 and 22.5 and 24.3 (2×) and 27 and 25.2 and 26.9 and 27.3
same,CD11b levels in blood samples,"[3]; mice engrafted intravenously with MV4-11 cells, individual mice (Fig 3E)",7.18% and 15.3% and 22.1% and 21.14% and 13% and 34.5% and 22% and 9.14% and 7.78%
same,"Survival time (Kaplan-Meier, event = 1)","[3]; mice engrafted with MV4-11 cells intravenously, individual mice (Fig 3D)",32 days and 46 days and 48 days and 51 days and 53 days and 54 days
same,5mC level (dot blot),[4],no changes
same,CC50 at 72 h,Cytotoxicity (LC50),1240 nM
